This is an account of results in article PMC8010149, “A Therapeutic Strategy to Combat HIV-1 Latently Infected Cells With a Combination of Latency-Reversing Agents Containing DAG-Lactone PKC Activators” (Frontiers in Microbiology, 2021).

Bounds are passed on as bounds.

A short description of data set [1]: Cytotoxicity of LRAs in A3.01 cells. It counts as cell-based. To be noted: human, day 7. The method, then:
(§1) To determine the cytotoxicity of LRAs, A3.01, and U937 cells (5 × 10^5 cells/ml), which are the parental cells for ACH-2 and U1 cells, respectively, were cultured in the presence or absence of LRAs. After 7 days, cell viability was examined using the Cell Counting Kit-8 assay (Dojindo, Kumamoto, Japan) according to the manufacturer’s instructions. The numbers of living cells after drug treatment were measured and compared to those in untreated cells and are presented as a percentage relative to the control.

Data set [2] deals with HIV-1 in CD4+ T cells from HIV-1-infected individuals. Nature of the data set: Ex vivo reactivation, intracellular HIV-1 mRNA in primary CD4+ T cells from HIV-1-infected individuals. It counts as cell-based. Conditions: 10 μM YSE028, 24 h, seven individuals. How it is done:
Primary cells were isolated from seven HIV-1^+ individuals, and ex vivo reactivation experiments were conducted as previously described ([Matsuda et al., 2019]). In brief, peripheral blood samples were collected from HIV-1-infected participants receiving cART for at least 5 years (Table 1). All subjects maintained a low viral load (<20 copies/ml, except for occasional “blips”) during therapy. CD4^+ T cell counts in peripheral blood samples ranged from 477 to 992 cells/mm^3 (average: 631 cells/mm^3), and plasma viral loads were <20 copies/ml (except for one participant whose viral load was 22 copies/ml) as measured by quantitative PCR (qPCR; COBAS AmpliPrep/COBAS TaqMan HIV-1 Test version 2.0; Roche Diagnostics, Basel, Switzerland) at the time of study enrollment. The Ethics Committee at the National Center for Global Health and Medicine approved this study (NCGM-G-002259-00), and each patient provided written informed consent. […] The number of HIV-1 RNA copies was calculated using a standard curve obtained from serially diluted HIV-1pNL4-3 plasmid, and normalized values [HIV-1 RNA copies/input RNA (ng)] for each drug were compared to those without drug treatment. The relative increase in HIV-1 RNA levels in the presence of each drug or combination was then determined.

Data set [3] has as its system HIV-1 latently infected ACH-2 cells. Nature of the data set: Intracellular HIV-1 p24 by flow cytometry in ACH-2 cells. The class given is cell-based. To be noted: 24 h. How it is done: (§2) The reactivation of HIV-1 from latently infected cells was determined by intracellular p24 protein expression and quantification of p24 antigen in the supernatant (ACH-2 and U1 cells), or by changes in intracellular green fluorescent protein (GFP) expression (J-Lat 10.6 cells). J-Lat ([Jordan et al., 2003]), ACH-2, or U1 cells (5 × 10^5 cells/ml) were seeded in 96-well plates and incubated with different drug concentrations for 24 h to collect the cells. The supernatant was collected after 48 h. The increase in supernatant p24 antigen levels was measured using a Lumipulse G1200 (FUJIREBIO, Tokyo, Japan). J-Lat cells (5 × 10^5 cells/ml) were placed in 48-well plates and incubated with different drug concentrations for 24 h. Intracellular p24 protein expression and GFP-positive cells were analyzed by flow cytometry.
(§3) The amount of intracellular HIV-1 p24 and the active form of caspase-3 were determined by flow cytometry, as previously described ([Matsuda et al., 2015], [2019]). In brief, ACH-2 and U1 cells (2.5 × 10^5 cells/ml) were fixed with 1% paraformaldehyde/PBS for 20 min and permeabilized with Flow Cytometry Perm Buffer (TONBO Biosciences, San Diego, CA, United States). After 5 min of incubation at room temperature, the cells were stained with FITC anti-HIV-1 p24 (24-4) monoclonal antibody (mAb; Santa Cruz Biotechnology, Dallas, TX, United States) or Alexa Fluor 647-conjugated anti-active caspase-3 (C92-605) mAb (BD Pharmingen, San Diego, CA, United States) for 30 min on ice. For T cell activation and exhaustion marker staining, PBMCs from healthy donors separated by the above density gradient centrifugation method were incubated with fixable viability stain Ghost Dye 780 (TONBO Biosciences) for 30 min on ice. The cells were then stained with Brilliant Violet 510 anti-human CD3 (UCHT1) mAb (BioLegend), FITC anti-human CD4 (RPA-T4) mAb (TONBO Biosciences), PE-Cy7 anti-human CD8a (RPA-T8) mAb (TONBO Biosciences), PerCP-Cy5.5 anti-human CD38 (HB-7) mAb (BioLegend), PE anti-human CD69 (FN50) mAb (BioLegend), or Alexa Fluor 647 anti-human CD279/PD-1 (EH12.1) mAb (BD Biosciences, San Jose, CA, United States) for 30 min on ice. Next, the cells were analyzed using BD FACSVerse (BD Biosciences). In the analysis, unstained cells were used as a negative control to set the gating for each experiment. The collected data were analyzed using FlowJo software (Tree Star, San Carlos, CA, United States).
Background: Flow cytometry measures light scatter and fluorescence of single cells or particles in a stream.

The subject of data set [4] is CD8+PD1+CD38+ primary T cells. Nature of the data set: Immune exhaustion markers, CD8+PD1+CD38+ primary T cells. The class given is cell-based, human. To be noted: PBMCs from healthy donors, 24 h. The method, then:
as §3

Data set [5] is described as follows: Cytotoxicity of LRAs in U937 cells. It counts as cell-based. Conditions: human, day 7. The method, then:
as §1

Data set [6] concerns HIV-1 latently infected U1 cells. The experiment in a line: Intracellular HIV-1 p24 by flow cytometry in U1 cells. It counts as cell-based. To be noted: 24 h. The method, then: as §2, §3

A word on the CC50: it is the concentration at which the toxic effect on the cells reaches its halfway point. Low readings indicate harm at low concentration, high ones better tolerance by the cells.

For `CCCC(CCC)C(=O)OCC1(CO)CC(=C(C)C)C(=O)O1` (stereo not shown) [YSE028], the CC50 at 7 days in data set [1] and in data set [5] was greater than 100 µM each time. Moreover, the “HIV-1 mRNA compared to no drug control” value in data set [2] was 1.66 fold. Further, the “intracellular p24-positive live cells (flow cytometry quadrant)” value stood at 0.889 in data set [3] (0.1 µM); 62 in data set [3] (1 µM); 79.1 in data set [3] (10 µM); 0.239 in data set [6] (0.1 µM); 1.13 in data set [6] (1 µM); 36.3 in data set [6] (10 µM). Also, the “increase in CD8+ PD1+ CD38+ T cells” value in data set [4] was “only moderate”.
